Measured values taken from patent US8058242B2, “Chimeric proteins with natriuretic activity” (The University of Queensland, priority 2004, dated 2011).
Positions of bridges follow the written chain, without caps; N, C: chain ends. Residues, ends and D or L forms follow the SMILES beside them.

Experiments:
[1] = target: Endopeptidase (NEP) (EC 3.4.24.11) (Homo sapiens, UniProt P08473); test: Stability to enzymatic degradation by NEP (Examples 7, 16); assay type: in vitro ADME; conditions: over the 360 min measurement period
Sequence of Endopeptidase (NEP) (EC 3.4.24.11) (P08473 whole entry): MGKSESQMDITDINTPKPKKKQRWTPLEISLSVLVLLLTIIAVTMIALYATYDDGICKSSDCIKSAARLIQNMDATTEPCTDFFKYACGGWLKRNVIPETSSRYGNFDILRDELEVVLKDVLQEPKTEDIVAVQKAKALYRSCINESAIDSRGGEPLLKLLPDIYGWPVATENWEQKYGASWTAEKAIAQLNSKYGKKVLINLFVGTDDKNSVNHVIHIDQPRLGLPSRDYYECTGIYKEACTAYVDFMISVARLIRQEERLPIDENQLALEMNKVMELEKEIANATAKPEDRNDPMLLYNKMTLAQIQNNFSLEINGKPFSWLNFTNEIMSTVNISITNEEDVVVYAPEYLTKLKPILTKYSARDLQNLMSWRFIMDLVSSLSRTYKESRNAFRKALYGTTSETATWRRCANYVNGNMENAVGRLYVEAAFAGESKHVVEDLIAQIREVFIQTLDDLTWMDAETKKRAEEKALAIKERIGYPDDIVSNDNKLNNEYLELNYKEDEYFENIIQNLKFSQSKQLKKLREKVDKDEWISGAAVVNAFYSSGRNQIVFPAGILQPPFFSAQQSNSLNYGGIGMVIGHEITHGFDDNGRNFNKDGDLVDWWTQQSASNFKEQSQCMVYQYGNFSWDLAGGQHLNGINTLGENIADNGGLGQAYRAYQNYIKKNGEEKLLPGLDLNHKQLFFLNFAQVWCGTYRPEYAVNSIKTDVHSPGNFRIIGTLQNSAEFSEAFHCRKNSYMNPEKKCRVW
Experimental: (§1) The incubation buffer contained 100 mM Tris/HCl and 150 mM NaCl and the pH was adjusted to 7.2-7.4. In each assay, 100 μl of peptide [500 μM] was incubated with 300 μl buffer (with 500 ng Endopeptidase (NEP) or 10 μg Plasmin) at 37° C. 50 μl aliquots were taken at times 5 min, 30 min, 60 min, 90 min, 180 min and 24 h. The reaction was quenched by heating to 100° C. for 4 min and the remaining peptide concentrations measured by RP-HPLC. Note that the levels of Plasmin required to degrade these peptides was several thousands time the levels present in human plasma.
(§2) The stability of TDT and was investigated using the same enzymatic degradation assays (NEP, plasmin, pepsin) disclosed in Example 7. […] It is also evident that the increased NEP stability cannot be explained by the length of the tail region alone as the NEP cleavage site residues at the N-terminal end of the loop region.

Plasmin = target: T1, Plasmin (Homo sapiens, UniProt P00747); test: Stability to enzymatic degradation by plasmin (Examples 7, 16); assay type: in vitro ADME
T1 construct: with 500 ng Endopeptidase (NEP) or 10 μg Plasmin
T1 sequence (P00747 97-580 partner limits assumed, species assumed): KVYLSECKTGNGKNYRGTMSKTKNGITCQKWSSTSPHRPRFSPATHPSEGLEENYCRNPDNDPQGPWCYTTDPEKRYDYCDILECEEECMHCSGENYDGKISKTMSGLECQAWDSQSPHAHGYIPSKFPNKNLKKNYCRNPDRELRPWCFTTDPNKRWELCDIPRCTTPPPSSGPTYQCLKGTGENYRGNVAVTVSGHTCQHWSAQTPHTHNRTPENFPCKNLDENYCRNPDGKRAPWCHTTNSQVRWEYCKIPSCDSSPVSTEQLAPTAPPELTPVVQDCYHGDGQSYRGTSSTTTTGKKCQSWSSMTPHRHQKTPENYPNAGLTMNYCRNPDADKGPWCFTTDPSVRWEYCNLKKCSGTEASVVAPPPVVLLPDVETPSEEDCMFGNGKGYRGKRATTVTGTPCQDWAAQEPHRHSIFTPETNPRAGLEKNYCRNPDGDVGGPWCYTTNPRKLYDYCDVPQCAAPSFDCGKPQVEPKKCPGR
T1 sequence (P00747 581-810 limits assumed, species assumed): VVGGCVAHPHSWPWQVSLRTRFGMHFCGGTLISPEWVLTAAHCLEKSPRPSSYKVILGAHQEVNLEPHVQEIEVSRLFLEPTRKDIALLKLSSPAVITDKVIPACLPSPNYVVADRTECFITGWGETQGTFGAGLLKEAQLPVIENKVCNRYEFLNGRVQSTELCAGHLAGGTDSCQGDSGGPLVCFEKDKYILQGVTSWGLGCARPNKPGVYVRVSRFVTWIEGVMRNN
Experimental: as §1, §2

pepsin = test: Stability to enzymatic degradation by pepsin (Example 16); assay type: in vitro ADME
Excerpt: as §2

[2] = target: T2, NPR-A signaling in HeLa cells (Homo sapiens, UniProt P16066); test: cGMP AlphaScreen assay in HeLa cells (Examples 14, 15); assay type: cell-based; conditions: 30 minutes at 37° C.
T2 construct: Cyclic GMP (cGMP) elevation in HeLa cells in response to Natriuretic Peptide stimulation; endogenous in cells; host or cells: HeLa cells
T2 sequence (P16066 33-1061): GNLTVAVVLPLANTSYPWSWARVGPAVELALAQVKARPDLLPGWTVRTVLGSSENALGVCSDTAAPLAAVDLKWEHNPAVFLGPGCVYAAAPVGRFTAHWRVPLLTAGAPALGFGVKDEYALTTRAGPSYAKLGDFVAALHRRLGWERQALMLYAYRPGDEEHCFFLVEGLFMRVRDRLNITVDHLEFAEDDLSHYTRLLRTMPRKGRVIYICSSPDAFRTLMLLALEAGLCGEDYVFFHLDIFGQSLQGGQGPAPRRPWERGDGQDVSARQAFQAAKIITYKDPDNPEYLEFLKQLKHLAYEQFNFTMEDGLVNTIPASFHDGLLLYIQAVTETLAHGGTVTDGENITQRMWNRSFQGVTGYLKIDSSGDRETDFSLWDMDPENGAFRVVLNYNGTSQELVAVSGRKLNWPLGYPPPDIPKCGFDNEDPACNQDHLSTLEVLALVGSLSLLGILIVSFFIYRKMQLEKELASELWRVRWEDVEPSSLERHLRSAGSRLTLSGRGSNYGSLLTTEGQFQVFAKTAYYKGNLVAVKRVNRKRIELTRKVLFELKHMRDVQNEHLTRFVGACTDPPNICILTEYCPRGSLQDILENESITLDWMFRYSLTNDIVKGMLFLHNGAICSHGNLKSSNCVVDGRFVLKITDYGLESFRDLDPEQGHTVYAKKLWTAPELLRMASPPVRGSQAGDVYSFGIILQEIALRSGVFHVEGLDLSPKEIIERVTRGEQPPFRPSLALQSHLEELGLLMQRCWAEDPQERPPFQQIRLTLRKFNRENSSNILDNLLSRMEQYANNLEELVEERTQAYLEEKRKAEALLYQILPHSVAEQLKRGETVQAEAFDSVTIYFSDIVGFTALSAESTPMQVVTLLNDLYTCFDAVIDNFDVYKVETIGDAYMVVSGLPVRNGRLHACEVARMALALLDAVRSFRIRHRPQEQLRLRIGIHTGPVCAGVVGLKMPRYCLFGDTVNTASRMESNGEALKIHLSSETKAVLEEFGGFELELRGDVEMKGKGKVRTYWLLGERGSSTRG
Experimental: HeLa cells were maintained in RPMI cell culture medium (Gihco Invitrogen, Mt Waverley, Australia) supplemented with 10% Foetal Bovine Serum (Cambrex Bio Science, Rockland, USA). Upon reaching confluence, cells were sub-cultured such that they would be 70-90% confluent at time of assay.
Cyclic GMP (cGMP) elevation in HeLa cells in response to Natriuretic Peptide stimulation was performed using a cGMP AlphaScreen kit (PerkinElmer, Boston, USA), as follows for normal experiments: Cells were detached, pelleted to remove growth medium, and resuspended in Stimulation Buffer (Hank's Balanced Salt Solution, 0.1% Bovine Serum Albumin [BSA] (Sigma-Aldrich, Castle Hill, Australia), 1 mM 3-Isobutyl-1-methylxanthine [IBMX] (Sigma-Aldrich, Castle Hill, Australia)) and diluted to 6×10^6 cells per mL (30 000 cells per 5 μL). 5 μL of cells were added to wells of white 384-well OptiPlates (PerkinElmer, Boston, USA), and stimulated with increasing concentrations of peptide for 30 minutes at 37° C. Cells were then lysed with 10 μL Lysis buffer (dH2O, 0.3% Tween-20 (Sigma-Aldrich, Castle Hill, Australia), 5 mM HEPES (JRH Biosciences, Kansas, USA) and 0.1% BSA) and 5 μL acceptor bead mix (10 μL per mL acceptor beads and 1/3000 anti-cGMP antibody (BioVision, Mountain View, USA) in lysis buffer) added per well in the dark. Plates were incubated in the dark at room temperature for 30 minutes, then 5 μL donor bead mix (10 μL per ML donor beads and 0.3 nM biotinylated cGMP in lysis buffer) was added per well in the dark and the plate incubated overnight at room temperature. Signal was read using an EnVision plate reader (PerkinElmer, Boston, USA) and data analysed using Prism software. The cGMP standard curve was performed as per manufacturer's instructions.
To examine whether TNPc and synthetic analogs produced in the inventors' laboratory could stimulate NPR-A signaling, cGMP elevations in HeLa cells in response to these peptides were measured, as described above.

SMILES: CC[C@H](C)[C@H](NC(=O)[C@H](CCCCN)NC(=O)[C@H](CO)NC(=O)[C@H](CC(=O)O)NC(=O)[C@@H](N)CO)C(=O)NCC(=O)N[C@@H](CC(N)=O)C(=O)NCC(=O)N[C@H]1CSSC[C@@H](C(=O)N[C@@H](CC(N)=O)C(=O)N[C@@H](CCCNC(=N)N)C(=O)N[C@H](C(=O)N[C@@H](CCSC)C(=O)N[C@@H](CCC(N)=O)C(=O)N[C@@H](CC(N)=O)C(=O)N2CCC[C@H]2C(=O)N2CCC[C@H]2C(=O)N[C@@H](CCCCN)C(=O)N[C@@H](CCCCN)C(=O)N[C@@H](Cc2ccccc2)C(=O)N[C@@H](CO)C(=O)NCC(=O)N[C@@H](CCC(=O)O)C(=O)O)[C@@H](C)CC)NC(=O)CNC(=O)[C@H](CC(C)C)NC(=O)[C@H](CC(N)=O)NC(=O)[C@H](CO)NC(=O)[C@H](C(C)C)NC(=O)[C@H](Cc2c[nH]cn2)NC(=O)[C@H](CC(N)=O)NC(=O)[C@H]([C@@H](C)CC)NC(=O)[C@H](CCCNC(=N)N)NC(=O)[C@H](CC(=O)O)NC(=O)[C@H]([C@@H](C)CC)NC(=O)[C@H](CCCCN)NC(=O)[C@H](Cc2c[nH]cn2)NC(=O)CNC(=O)[C@H](Cc2ccccc2)NC1=O [TDT] (H-SDSKIGNGCFGHKIDRINHVSNLGCNRIMQNPPKKFSGE-OH; disulfide 9-25)
- degradation by NEP [1]: minimal degradation
- stability against plasmin compared with ANP (Plasmin): more stable than ANP
- stability against pepsin compared with ANP (pepsin): more stable than ANP
- EC50 ([2]; EC50, cGMP accumulation in HeLa cells): 70.4 nM
- EC50 ([2]; −Log10EC50 (pEC50) ± Standard Error, cGMP accumulation in HeLa cells): 61.9 nM
